The record followed here is patent publication US4322412A, “Anthracycline glycosides, their preparation, use and compositions thereof” (priority 1979, dated 1982).

Data set [1] concerns HeLa cells. Put plainly: Effect on HeLa Cells Cloning Efficiency In Vitro. The conditions noted are these: for IC50: Homo sapiens, HeLa, read-out: ID50 (HeLa cells cloning efficiency); for cytotoxicity relative to parent compounds: in words, vs respective parent compounds (Table 1). The format is cell-based. The procedure:
^(a) HeLa cells were exposed to the test compounds for 24 hours, then
plated. The number of colonies was evaluated 5 days later.

Data set [2] relates to P-388 ascitic leukemia. Put plainly: Antitumor Activity on Ascitic P 388 Leukemia in Mice. As to conditions: for antitumor activity relative to parent compounds: at the maximal tolerated dose; for in vivo toxicity relative to parent compounds: vs parent compounds; for in vivo toxicity: even at a dose of 200 mg/kg; for antitumor activity relative to daunorubicin: vs daunorubicin in the same experiment. Type of data set: in vivo. The procedure: Several of the new compounds of the invention were tested on HeLa cells cloning efficiency in vitro and on P-388 ascitic leukemia in mice, in comparison with daunorubicin and doxorubicin.
Antitumor Activity on Ascitic P 388 Leukemia in Mice
^(a) Mice were treated i.p. on day 1 after tumor cells inoculation.
^(b) Median survival time of treated mice/median survival time of
^(c) Evaluated on the basis of macroscopic autoptic findings.
^(d) Data of two separate experiments.

Where [3] appears, read: 24 hours exposure, then plated, colonies evaluated 5 days later.

Each structure is given as a SMILES string. ≈ marks a conversion by molar mass, not a printed value. Structures can show the parent of a compound that is named as a salt. Where two headings read alike, the source gives them in different places.

For `COc1cccc2c1C(=O)c1c(O)c3c(c(O)c1C2=O)C[C@@](O)(C(C)=O)C[C@@H]3O[C@H]1C[C@H](N)[C@H](O)[C@H](C)O1` [Daunorubicin . HCl, daunorubicin, reference compound], in data set [1] (24 h), the IC50 worked out at 0.0072 µg/mL. Moreover, the “Toxic Deaths (macroscopic autoptic findings)” value (from here on “Toxic Deaths”) is reported as 0/10 in data set [2] (2.9 mg/kg i.p. day 1, two separate experiments, first value); 0/8 in data set [2] (2.9 mg/kg i.p. day 1, two separate experiments, second value); 3/10 in data set [2] (4.4 mg/kg i.p. day 1, two separate experiments, first value); 0/6 in data set [2] (4.4 mg/kg i.p. day 1, two separate experiments, second value); 8/10 in data set [2] (6.6 mg/kg i.p. day 1, two separate experiments, first value); 0/6 in data set [2] (6.6 mg/kg i.p. day 1, two separate experiments, second value).
On to `COc1cccc2c1C(=O)c1c(O)c3c(c(O)c1C2=O)C[C@@](O)(C(=O)CO)C[C@@H]3O[C@H]1C[C@H](N)[C@H](O)[C@H](C)O1` [Doxorubicin . HCl (adriamycin), doxorubicin, reference compound], for which the IC50 in data set [1] (24 h) is 0.0095 µg/mL. Besides, the “T/C (median survival time of treated mice/control mice × 100)” value in data set [2] (4.4 mg/kg i.p. day 1) stood at 219%; in data set [2] (6.6 mg/kg i.p. day 1) it was 223%; in data set [2] (10 mg/kg i.p. day 1), 180%. The entries for the “Toxic Deaths” value in data set [2] (4.4 mg/kg i.p. day 1), in data set [2] (6.6 mg/kg i.p. day 1) and in data set [2] (10 mg/kg i.p. day 1) were 0/8, 0/8 and 4/8, respectively.
In the case of `COc1cccc2c1C(=O)c1c(cc3c(c1O)[C@@H](O[C@H]1C[C@H](N)[C@H](OC)[C@H](C)O1)C[C@](O)(C(C)=O)C3)C2=O` [II, 4'-O-methyl-11-deoxy-daunorubicin], the IC50 in data set [1] (setting [3]) was determined as 0.066 µg/mL (≈ 0.126 µM). Moreover, the “cytotoxicity relative to parent compounds” value in data set [1] is “less cytotoxic than their respective parent compounds”. For the same compound, in data set [2] (25 mg/kg i.p. day 1), the “T/C (median survival time of treated mice/control mice × 100)” value turned out to be 180% and the “Toxic Deaths” value is on record as 0/9. Also, in data set [2] (50 mg/kg i.p. day 1), the “T/C (median survival time of treated mice/control mice × 100)” value came to 225% and the “Toxic Deaths” value was 1/9. Further, in data set [2] (in words), the “antitumor activity relative to parent compounds” value was “comparable to that of the parent compounds” and the “in vivo toxicity relative to parent compounds” value was “less toxic in vivo”.
Consider `COc1cccc2c1C(=O)c1c(cc3c(c1O)[C@@H](O[C@H]1C[C@H](N)[C@H](OC)[C@H](C)O1)C[C@](O)(C(=O)CO)C3)C2=O` [III, 4'-O-methyl-11-deoxy-doxorubicin], for which, in data set [1] (setting [3]), the IC50 was 0.022 µg/mL (≈ 0.0406 µM). For the same compound, in data set [1], the “cytotoxicity relative to parent compounds” value is “less cytotoxic than their respective parent compounds”. For the same compound, in data set [2] (6.6 mg/kg i.p. day 1), the “T/C (median survival time of treated mice/control mice × 100)” value stood at 195% and the “Toxic Deaths” value is given as 0/8. In data set [2] (10 mg/kg i.p. day 1), the “T/C (median survival time of treated mice/control mice × 100)” value turned out to be 209% and the “Toxic Deaths” value was 0/8. In data set [2] (15 mg/kg i.p. day 1), the “T/C (median survival time of treated mice/control mice × 100)” value is recorded as 238% and the “Toxic Deaths” value is recorded as 0/7. Further, in data set [2] (22.5 mg/kg i.p. day 1), the “T/C (median survival time of treated mice/control mice × 100)” value was 214% and the “Toxic Deaths” value is recorded as 0/10. Moreover, in data set [2] (in words), the “range of active and non-toxic doses” value was “wide range of active and non-toxic doses”; the “antitumor activity relative to parent compounds” value was “comparable to that of the parent compounds”; the “in vivo toxicity relative to parent compounds” value was “less toxic in vivo”.
Take `COc1cccc2c1C(=O)c1c(cc3c(c1OC)[C@@H](O[C@H]1C[C@H](N)[C@H](OC)[C@H](C)O1)C[C@](O)(C(C)=O)C3)C2=O` [IV, 4',6-di-O-methyl-11-deoxy-daunorubicin]: the IC50 in data set [1] (setting [3]) was 1 µg/mL (≈ 1.85 µM).
Consider `COc1cccc2c1C(=O)c1c(O)c3c(c(OC)c1C2=O)C[C@@](O)(C(C)=O)C[C@@H]3O[C@H]1C[C@H](N)[C@H](O)[C@H](C)O1` [VI, 11-O-methyl-daunorubicin], for which the IC50 in data set [1] (setting [3]) stood at 0.4 µg/mL (≈ 0.739 µM). For the same compound, the “cytotoxicity relative to parent compounds” value in data set [1] is reported as “markedly less cytotoxic than are their parent compounds”. Also, in data set [2] (100 mg/kg i.p. day 1), the “T/C (median survival time of treated mice/control mice × 100)” value is recorded as 111% and the “Toxic Deaths” value was 0/4. In data set [2] (200 mg/kg i.p. day 1), the “T/C (median survival time of treated mice/control mice × 100)” value was found to be 122% and the “Toxic Deaths” value is 0/3. Moreover, in data set [2] (in words), the in vivo toxicity result is “not toxic” and the “antitumor activity relative to daunorubicin” value was “comparable to that of daunorubicin”.
Take `COc1cccc2c1C(=O)c1c(O)c3c(c(OC)c1C2=O)C[C@@](O)(C(C)=O)C[C@@H]3O[C@H]1C[C@H](N)[C@H](OC)[C@H](C)O1` [VIII, 4',11-di-O-methyl-daunorubicin]: in data set [1] (setting [3]), the IC50 was determined as 0.5 µg/mL (≈ 0.9 µM). Further, in data set [1], the “cytotoxicity relative to parent compounds” value is reported as “markedly less cytotoxic than are their parent compounds”. Also, in data set [2] (100 mg/kg i.p. day 1), the “T/C (median survival time of treated mice/control mice × 100)” value came to 111% and the “Toxic Deaths” value was 0/6. In addition, in data set [2] (200 mg/kg i.p. day 1), the “T/C (median survival time of treated mice/control mice × 100)” value was determined as 122% and the “Toxic Deaths” value is 0/6. Further, in data set [2] (in words), the in vivo toxicity result is given as “not toxic” and the “antitumor activity relative to daunorubicin” value is on record as “comparable to that of daunorubicin”.
